{"source": "patent US20210100897A1", "about": "“METHODS FOR THE STIMULATION OF DENDRITIC CELL (DC) PRECURSOR POPULATION \"PRE-DC\" AND THEIR USES THEREOF” (AGENCY FOR SCIENCE, TECHNOLOGY AND RESEARCH, priority 2017, published 2021)", "type_in_all_cases": "cell-based, human", "key": {"pDC [1]": {"tested_on": "pDC", "experiment": "Luminex Drop Array assay on sorted and stimulated pDC, culture supernatants", "conditions": "TLR7/8 or TLR9 stimulation; FIG. 2G and FIG. 13", "description": "(§1) A total of 2,000 cells/well of sorted pre-DC and DC subsets were seeded in V-bottom 96 well plates and then incubated for 18 h in 50 μL complete RPMI-1640 Glutmax media (Life Technologies) supplemented with 10% FBS and 1% penicillin/streptomycin, and stimulated with either LPS, LPS+IFNγ, Flagellin, polyI:C, Imidazoquinoline or CpG oligodeoxynucleotides (ODN) 2216. Cells were then pelleted and 30 μL supernatant was collected. A Luminex® Drop Array™ was performed using 5 μL of the supernatant. Human G-CSF, GM-CSF, IFN-α2, IL-10, IL-12p40, IL-12p70, IL-15, IL-1RA, IL-1a, IL-1b, IL-6, IL-7, IL-8, MIP-1b, TNF-α, TNF-β were tested by multiplexing (EMD Millipore) with DropArray-bead plates (Curiox) according to the manufacturer's instructions. Acquisition was performed using xPONENT 4.0 (Luminex) acquisition software, and data analysis was performed using Bio-Plex Manager 6.1.1 (Bio-Rad)."}, "pre-DC": {"tested_on": "pre-DC", "experiment": "Luminex Drop Array assay on sorted and stimulated pre-DC, culture supernatants", "conditions": "TLR7/8 or TLR9 stimulation; FIG. 2G and FIG. 13", "description": "as §1"}, "pDC [2]": {"tested_on": "pDC", "experiment": "Intracellular cytokine detection following stimulation with TLR ligands (PBMC, flow cytometry), pDC", "conditions": "PBMC stimulated 6 h with TLR agonist", "description": "All antibodies used for fluorescence-activated cell sorting (FACS) and flow cytometry were mouse anti-human monoclonal antibodies (mAbs), except for chicken anti-human CADM1 IgY primary mAb. Briefly, 5×10^6 cells/tube were washed and incubated with Live/Dead blue dye (Invitrogen) for 30 min at 4° C. in phosphate buffered saline (PBS) and then incubated in 5% heat-inactivated fetal calf serum (FCS) for 15 min at 4° C. (Sigma Aldrich). The appropriate antibodies diluted in PBS with 2% fetal calf serum (FCS) and 2 mM EDTA were added to the cells and incubated for 30 min at 4° C., and then washed and detected with the secondary reagents. For intra-cytoplasmic or intra-nuclear labeling or staining, cells were fixed and permeabilized with BD Cytofix/Cytoperm (BD Biosciences) or with eBioscience FoxP3/Transcription Factor Staining Buffer Set (eBioscience/Affimetrix), respectively according to the manufacturer's instructions. Flow cytometry was performed using a BD LSRII or a BD FACSFortessa (BD Biosciences) and the data analyzed using BD FACSDiva 6.0 (BD Biosciences) or FlowJo v.10 (Tree Star Inc.). For isolation of precursor dendritic cells (pre-DC), PBMC were first depleted of T cells, monocytes and B cells with anti-CD3, anti-CD14 and anti-CD20 microbeads (Miltenyi Biotec) using an AutoMACS Pro Separator (Miltenyi Biotec) according to the manufacturer's instructions. […]"}}, "data": [{"smiles": "CCOCc1nc2c([nH]1)c(N)nc1ccccc12", "note": "[CL097]", "values": [{"measurement": "IFNα secretion by pure pDC cultures", "setting": "pDC [1]", "result": "abundant secretion"}, {"measurement": "IL-12p40 secretion by pure pDC cultures", "setting": "pDC [1]", "result": "but not IL-12p40"}, {"measurement": "IL-12p40 secretion by pre-DC", "setting": "pre-DC", "result": "readily secreted"}, {"measurement": "IFN-α production by pDC", "setting": "pDC [2]", "result": "robust"}]}]}
